Where two headings read alike, the source gives them in different places.

Data set [1] concerns carrageenin edema in rat's paw. The experiment in a line: Carrageenin Edema Test in Rat's Paw (anti-inflammatory activity). The class given is in vivo, Female Wistar rats. The following applies: for inhibition in vivo at 100 mg/kg: Rattus norvegicus, hydrochloric acid salts; for Inhibition values compared with comparative compounds: Table 1, 100 mg/kg. As for the experimental part: A standard method of Carrageenin Edema Test in Rat's Paw described in C. A. Winter et al., Proc. Soc. Exp. Biol. Med., 111, 544 (1962) was employed.
[…] One hour later, the pad of a hind paw of the rat was injected with 0.1 ml of 1% aqueous carrageenin solution. The volume of the paw was measured both before the injection of carrageenin and three hours after the injection.
The edema inhibition percentage of the test compound was calculated from the ratio of the increase in the volume of the affected paw of the test animals to the increase in the volume of the affected paw of the controls.
The anti-inflammatory activity of the 3-aminoindazole derivative hydrochloric acid salts of this invention was measured.
The anti-inflammatory activity of the 3-aminoindazole derivative hydrochloric acid salts obtained by Examples 1-49 of this invention was measured by the standard method of carrageenin edema test. In these tests, the amount of the administration of the salts was 100 mg/kg. The results are shown in Table 17 (Inhibition (%) was measured three hours after the injection).
A general note: In the carrageenan paw model, swelling and tenderness develop within hours.

Data set [2] deals with acetic acid-induced writhing in mice. Put plainly: Acetic Acid-Writhing Test (analgesic activity). The class given is in vivo, Male ddy-strain mice. The conditions noted are these: 100 mg/kg, oral, hydrochloric acid salts. On the procedure:
Acetic acid-writhing test was carried out according to Koster et al., Fed. Proc., 18, 412 (1959). […] Thirty minutes later, the mice were intraperitoneally injected with 0.1 ml/10 g of 0.7% acetic acid physiological salt solution as a stimulant. Ten minutes after the stimulant injection, writhing frequency as pain response was observed and recorded over 10 minutes.
The inhibition percentage of the test compound was represented as the ratio of the inhibition of the writhing frequency.
Analgesic activity of 3-aminoindazole derivative hydrochloric acid salts was measured by acetic acid-writhing test.

The test system of data set [3] is carrageenin-inflamed hind paw of the rat (pressure pain). Put plainly: Randall-Selitto Test (analgesic activity). The class given is in vivo, Female wister rats. The conditions noted are these: for Analgesic Coefficient, Table 18: 100 mg/kg, hydrochloric acid salts; for Analgesic Coefficient, Table 18 / Analgesic coefficient: water 0.8; for Analgesic coefficient: Randall-Selitto, oral, 50 mg/kg per method; for Analgesic activity by the Randall-Selitto test: rat, in vivo. On the procedure:
The Randall-Selitto analgesic activity test was carried out according to the general method described in J. O. Randall & J. J. Selitto, Arch. Int. Pharmacodyn, 111, 409 (1957). Female wister rats weighing 120-150 g were orally administered 50 mg/kg of the test compound as an aqueous solution. Thirty minutes later, the pad of a hind paw of the rat was injected with 0.1 ml of 1% aqueous carrageenin solution. Pressure was applied to the paw where edema was formed by Balance-type Pressure Device (Ugo Basile Company; Italy) 1, 2, 3 and 4 hours after the injection. The weight when the test animals began to struggle with pain was measured. The analgesic activity is represented by an analgesic coefficient which is obtained by dividing the average weight measured 1.5, 2.5, 3.5 and 4.5 hours after the administration by the applied weight prior to the administration.
The analgesic activity of the 3-aminoindazole derivative hydrochloric acid salts obtained by Examples 2, 6, 10, 18, 22 and 28 of this invention was measured by the standard method of Randall-Selitto test. In these tests, the amount of the administration of the salts was 100 mg/kg.

The nature of data set [4]: Acute toxicity (LD50), intravenous injection. The following applies: mouse, in vivo, male ddY-strain mice, read-out: LD50, Table 19. As for the experimental part: Acute toxicity was measured by an ordinary method described in Finney DJ Probit Analysis Cambridge University Press 48, (1952). Ddy mice weighing about 18 g on average, each group consisting of 10 animals, were […] injected with the physiological salt solution containing the test compound. The amount of the test compound administered was varied in 5-8 groups. Three days after the administration, dead animals were counted in each group. The amount of the test compound killing half the number of the animals (LD50) was calculated from the results.
The acute toxicity of the 3-aminoindazole derivatives and their hydrochloric acid salts obtained by Examples 1-49 of this invention was measured by giving male ddY-strain mice an intravenous injection.

Data set [5] relates to gastric ulcer in rats. Put plainly: Anti-Ulcer Test: occurrence of gastric ulcer by test compound alone. The class given is in vivo, Male donryu rats. The following applies: 100 mg/kg singly administered at one time, oral. As for the experimental part:
Ulcer inhibition of 3-(3-diethylaminopropylamino)indazole (10) and 1-(3-piperidinopropyl)-3-aminoindazole (18), typical and preferred compounds of this invention, was measured.

Data set [6] relates to gastric ulcer caused by indomethacin. The conditions noted are these: for Ulcer index: rat, in vivo. As for the experimental part:
The test compound was suspended in 1% HCO-60 (trade name for polyoxyethylene hydrogenated castor oil; a product of Nikko Chemical Co., Ltd., Japan) at the concentration of 10 mg/ml. Male donryu rats weighing 150-160 g were orally administered 100 mg/kg of the test compound. The occurrence of gastric ulcer was examined 24 hours after the administration.
It is well known that the single use of acidic non-steroidal anti-inflammatory drugs causes a side effect in digestive tracts such as gastric ulcer.

The mark [7] stands for this setting: po, 3 h, 100 mg/kg, measured three hours after the injection, read-out: Inhibition (carrageenin edema), Table 17.
Where [8] appears, read: 100 mg/kg, oral, 3 h after carrageenin, read-out: Inhibition (carrageenin edema), Table 1.
[9] abbreviates: 100 mg/kg compound together with 20 mg/kg of indomethacin.

As usually defined, the LD50 is the dose at which mortality reaches 50%. Consider `c1ccc2c(NCCCN3CCCCC3)n[nH]c2c1` [Compound (2), 3-(3-piperidinopropylamino)indazole], for which the inhibition in vivo at 100 mg/kg in data set [1] (setting [7]) and in data set [1] (setting [8]) was 55% in each case. In addition, the “Inhibition values compared with comparative compounds” value in data set [1] is “higher than that of the compound C-1”. The “Inhibition (acetic acid-writhing), Table 3” value (from here on “Inhibition … Table 3”) in data set [2] was determined as 53%. For the same compound, the “Analgesic Coefficient, Table 18” value in data set [3] is 0.98. Besides, in data set [4], the LD50 at 72 h was 101 mg/kg.
As for `CC1CCCCN1CCCNc1n[nH]c2ccccc12` (centres unmarked) [Compound (6), 3-{3-(2-methylpiperidino)propylamino}indazole], the “Inhibition (carrageenin edema), Table 2” value in data set [1] (25 mg/kg, oral) worked out at 40%; in data set [1] (50 mg/kg, oral), 53%; in data set [1] (100 mg/kg, oral), 67%. The inhibition in vivo at 100 mg/kg in data set [1] (setting [7]) and in data set [1] (setting [8]) was 67% throughout. Further, in data set [1], the “Inhibition values compared with comparative compounds” value is “higher than that of the compound C-1”. In data set [2], the “Inhibition … Table 3” value was 49%. Besides, the “Analgesic Coefficient, Table 18” value in data set [3] was found to be 1.11. The “Analgesic coefficient” value in data set [3] is recorded as 1.11. Moreover, the “Analgesic activity by the Randall-Selitto test” value in data set [3] was “potent analgesic activity”. Besides, the LD50 at 72 h in data set [4] turned out to be 91 mg/kg.
In the case of `CCN(CC)CCCNc1n[nH]c2ccccc12` [Compound (10), 3-(3-diethylaminopropylamino)indazole], the inhibition in vivo at 100 mg/kg in data set [1] (setting [7]) and in data set [1] (setting [8]) was 66% throughout. Further, the “Inhibition values compared with comparative compounds” value in data set [1] is “higher than that of the compound C-1”. Also, in data set [3], the “Analgesic Coefficient, Table 18” value is on record as 1.31. In addition, in data set [4], the LD50 at 72 h was determined as 233 mg/kg. Moreover, the Gastric ulcer occurrence result in data set [5] is listed as “Gastric ulcer did not occur”. Besides, in data set [6] (setting [9]), the “Occurrence frequency in combination” value is listed as “not changed”. For the same compound, the “Ulcer index in combination” value in data set [6] (setting [9]) is given as 14.9 mm.
Regarding `CC1CCCCN1CCCn1nc(N)c2ccccc21` (centres unmarked) [Compound (22), 1-{3-(2-methylpiperidino)propyl}-3-aminoindazole], the “Inhibition (carrageenin edema), Table 2” value in data set [1] (25 mg/kg, oral) worked out at 29%; in data set [1] (50 mg/kg, oral), 33%; in data set [1] (100 mg/kg, oral) it was 51%. For the same compound, the inhibition in vivo at 100 mg/kg in data set [1] (setting [7]) and in data set [1] (setting [8]) was 51% in each case. Moreover, the “Inhibition values compared with comparative compounds” value in data set [1] was “higher than those of the compounds C-2 and C-3”. The “Inhibition … Table 3” value in data set [2] stood at 31%. In addition, the “Analgesic Coefficient, Table 18” value in data set [3] is reported as 1.05. Also, the “Analgesic coefficient” value in data set [3] was found to be 1.05. Also, the “Analgesic activity by the Randall-Selitto test” value in data set [3] is “potent analgesic activity”. The LD50 at 72 h in data set [4] came out at 102 mg/kg.
With `CN(C)CCn1nc(N)c2ccccc21` [Compound (28), 1-(2-dimethylaminoethyl)-3-aminoindazole], the inhibition in vivo at 100 mg/kg in data set [1] (setting [7]) and in data set [1] (setting [8]) was 44% throughout. Moreover, the “Inhibition values compared with comparative compounds” value in data set [1] was “higher than those of the compounds C-2 and C-3”. Also, the “Analgesic Coefficient, Table 18” value in data set [3] is 0.96. In addition, the LD50 at 72 h in data set [4] is 343 mg/kg.
Regarding `c1ccc2c(c1)c(NCCCN1CCCCC1)nn2CCCN1CCCCC1` [Compound (39), 1-(3-piperidinopropyl)-3-(3-piperidinopropylamino)indazole], the inhibition in vivo at 100 mg/kg in data set [1] (setting [7]) and in data set [1] (setting [8]) was 28% each time. In addition, the LD50 at 72 h in data set [4] was determined as 102 mg/kg.
Regarding `c1ccc2c(c1)c(NCCCCCCN1CCCCC1)nn2CCCN1CCCCC1` [Compound (40)], in data set [1] (setting [7]), the inhibition in vivo at 100 mg/kg stood at 21%. Besides, the LD50 at 72 h in data set [4] amounted to 122 mg/kg.
On to `CC(CCNc1nn(CCCN2CCCCC2)c2ccccc12)N1CCCCC1` (centres unmarked) [Compound (41), 1-(3-piperidinopropyl)-3-(3-piperidinobutylamino)indazole], for which, in data set [1] (setting [7]), the inhibition in vivo at 100 mg/kg amounted to 28%. In addition, the LD50 at 72 h in data set [4] came out at 99 mg/kg.
The corresponding values for `CCN(CC)CCCNc1nn(CCC(C)N2CCCCC2)c2ccccc12` (centres unmarked) [Compound (42), 1-(3-piperidinobutyl)-3-(3-diethylaminopropylamino)indazole] are 29% and 167 mg/kg.
Take `CC(CCn1nc(NCCCN2CCCCC2)c2ccccc21)N1CCCCC1` (centres unmarked) [Compound (43), 1-(3-piperidinobutyl)-3-(3-piperidinopropylamino)indazole]: the inhibition in vivo at 100 mg/kg in data set [1] (setting [7]) is 28%. Also, the LD50 at 72 h in data set [4] worked out at 98 mg/kg.
The corresponding values for `CC(C)CC(CCNc1nn(CCC(C)N2CCCCC2)c2ccccc12)N1CCCCC1` (centres unmarked) [Compound (44), 1-(3-piperidinobutyl)-3-(5-methyl-3-piperidinohexylamino)indazole] are 21% and 123 mg/kg.
For `CC(CCNc1nn(CCC(C)N2CCCCC2)c2ccccc12)N(C)C` (centres unmarked) [Compound (45)] the same measures were 21% and 124 mg/kg.
`CCN(CC)CCCNc1nn(CCC(C)N(C)C)c2ccccc12` (centres unmarked) [Compound (46), 1-(3-dimethylaminobutyl)-3-(3-diethylaminopropylamino)indazole]: the inhibition in vivo at 100 mg/kg in data set [1] (setting [7]) was 29%. Also, the LD50 at 72 h in data set [4] came out at 272 mg/kg.
The corresponding values for `CC(CCn1nc(NCCCN2CCCCC2)c2ccccc21)N(C)C` (centres unmarked) [Compound (47), 1-(3-dimethylaminobutyl)-3-(3-piperidinopropylamino)indazole] are 28% and 212 mg/kg.
For `CC(CCn1nc(NCCC(C)N2CCCCC2)c2ccccc21)N(C)C` (centres unmarked) [Compound (48), 1-(3-dimethylaminobutyl)-3-(3-piperidinobutylamino)indazole] the same measures were 27% and 213 mg/kg.
`CCN(CC)C(CCNc1nn(CCC(C)N(C)C)c2ccccc12)CC(C)C` (centres unmarked) [Compound (49), 1-(3-dimethylaminobutyl)-3-(3-diethylamino-5-methylhexylamino)indazole]: the inhibition in vivo at 100 mg/kg in data set [1] (setting [7]) is 21%. For the same compound, the LD50 at 72 h in data set [4] worked out at 247 mg/kg.
As for `CN(C)CCCNc1nn(-c2ccccc2)c2ccccc12` [Compound C-6, 1-phenyl-3-(3-dimethylaminopropylamino)indazole, reference compound], the “Inhibition … Table 3” value in data set [2] was 0%.
Take `Nc1nn(-c2ccccc2)c2ccccc12` [Compound C-7, 1-phenyl-3-aminoindazole, reference compound]: the “Inhibition … Table 3” value in data set [2] was found to be 17%.
`COc1ccc2c(c1)c(CC(=O)O)c(C)n2C(=O)c1ccc(Cl)cc1` [indomethacin, reference compound]: the Ulcer index in data set [6] (10 mg/kg) came out at 10.2 mm; in data set [6] (20 mg/kg), 34.3 mm.

The values are drawn from patent US4549023A, “3-Aminoindazole derivatives” (priority 1980, dated 1985).
